Experimental data reported in ChEMBL document CHEMBL1123110, “Bicyclic and tricyclic analogues of anthramycin” (1985).

Legend:
Type in all cases: functional
Mus musculus [1] = species on record: Mus musculus; test: Optimal dose required for activity against P388 lymphocytic leukemia.
Mus musculus [2] = test: In vivo activity against P388 lymphocytic leukemia, and the maximum T/C values were reported. T/C >=125 is considered active
Mus musculus [3] = species on record: Mus musculus; test: Optimal dose required for activity against P388 lymphocytic leukemia

For `C=CCN1CC=Nc2c(O)cccc2C1=O`, the OD (Mus musculus [1]) was 80 mg/kg and the “Max T/C” value (Mus musculus [2]) was 117.
`COc1cc2c(cc1OC(C)=O)N[C@H](OC)[C@@H]1CC(OC(C)=O)CN1C2=O` (stereo partly specified) was tested, and the OD (Mus musculus [3]) was 16 mg/kg and the “Max T/C” value (Mus musculus [2]) was 100.
In the case of `C/C=C1\C[C@H]2[C@@H](OC)Nc3cc(O)c(OC)cc3C(=O)N2C1`, the OD (Mus musculus [1]) is reported as 0.2 mg/kg and the “Max T/C” value (Mus musculus [2]) is reported as 188.
With `COC(=O)/C=C1/C[C@H]2[C@@H](S(=O)(=O)[O-])Nc3cc(O)c(OC)cc3C(=O)N2C1.[Na+]` the OD (Mus musculus [1]) was 6 mg/kg and the “Max T/C” value (Mus musculus [2]) was 131.
`CCOC(=O)CN1CC=Nc2c(O)cccc2C1=O` was tested, and the OD (Mus musculus [1]) was 40 mg/kg and the “Max T/C” value (Mus musculus [2]) was 106.
`O=C1NCC=Nc2c(O)cccc21` was tested, and the OD (Mus musculus [1]) was 16 mg/kg and the “Max T/C” value (Mus musculus [2]) was 125.
`COc1cc2c(cc1O)N[C@H](OC)[C@@H]1CC(O)CN1C2=O` (stereo partly specified) was tested, and the OD (Mus musculus [1]) was 6.4 mg/kg and the “Max T/C” value (Mus musculus [2]) was 144.
With `C/C=C/CN1CC=Nc2c(O)cccc2C1=O` the OD (Mus musculus [1]) was 20 mg/kg and the “Max T/C” value (Mus musculus [2]) was 138.
`CN1CC=Nc2c(O)cccc2C1=O` was tested, and the OD (Mus musculus [1]) was 16 mg/kg and the “Max T/C” value (Mus musculus [2]) was 122.
In the case of `C#CCN1CC=Nc2c(O)cccc2C1=O`, the OD (Mus musculus [1]) is reported as 16 mg/kg and the “Max T/C” value (Mus musculus [2]) is reported as 162.
With `COc1cc2c(cc1O)N[C@@H](OC)[C@@H]1CC(O)CN1C2=O` (stereo partly specified) the OD (Mus musculus [1]) was 16 mg/kg and the “Max T/C” value (Mus musculus [2]) was 100.
In the case of `O=C1c2cccc(O)c2N=CCN1Cc1ccccc1`, the OD (Mus musculus [1]) is reported as 16 mg/kg and the “Max T/C” value (Mus musculus [2]) is reported as 100.
`O=C1c2ccccc2N=CC2CCCN12` (stereo unspecified) was tested, and the OD (Mus musculus [1]) was 8 mg/kg and the “Max T/C” value (Mus musculus [2]) was 133.
